# Assay results: patent US10202420B2, “Methods and compositions for treatment of cartilage and disc tissue pathologies” (THE ROYAL INSTITUTION FOR ADVANCEMENT OF LEARNING/MCGILL …, priority 2013, dated 2019)
# Where no end group is shown, it is not given here.
# Legend:
# [1] = system: bovine annulus fibrosus (AF) cells; assay: Proteoglycan synthesis by 35SO4 incorporation, cells in alginate beads; assay type: cell-based; conditions: 48 h, 16-mer peptides 1 μg/mL, 8-mer peptides 0.5 μg/mL, vs medium alone
# Procedure: (§1) Human and bovine IVDs were separated from the adjoining vertebral body and divided into NP and AF for bovine IVDs and NP and inner annulus fibrosus (iAF) for human IVDs. Tissue from the human outer annulus fibrosus (oAF) was not used for cell isolation in this study. Cells were enzymatically isolated from each region as previously described (63). Briefly, NP and AF tissues were dissected into approximately 2-mm thick pieces, washed twice in PBS containing 50 μg/mL gentamicin, […] and 0.25 μg/mL fungizone, then digested with 0.2% pronase for 1 h, followed by collagenase type IA at 0.01% for NP and 0.04% for AF tissue for 4 h in serum free DMEM.
# (§2) To compare the metabolic response to the various Link N peptides, freshly isolated human and bovine cells from NP and AF regions were embedded in 1.2% alginate beads, as previously described (65). Cells in alginate beads were cultured at 37° C., 5% CO2 in DMEM, containing 4.5 g/L glucose and supplemented with 10% FCS, 25 mmol/L HEPES, 50 μg/mL gentamicin sulphate, 0.25 μg/mL fungizone, 50 μg/mL L-ascorbate, and 2 mmol/L GlutaMAX. The beads were stabilized for 7 days and cell viability was assessed by Live/Dead® assay prior to further treatment. 5 beads per well were then cultured in 48 well plates in the presence of equimolar concentrations of either Link N (1 μg/mL), R-Link N (1 μg/mL), S-Link N (1 μg/mL), Link N 1-8 (0.5 μg/mL) or Link N 9-16 (0.5 μg/mL) in 0.5 mL DMEM. 25 μCi/mL ^35SO4 was added to the medium to allow assessment of proteoglycan synthesis (66). In addition, beads were exposed for 48 h to IL-1β (10 ng/mL) alone, or to a combination of peptides and IL-1β (51). At the end of the culture period, medium was collected and dialyzed exhaustively against miliQ water at […] (Spectra/Por® 3), followed by cold chase with 1M MgSO4 for 2 h to remove any remaining unincorporated ^35SO4. The ^35SO4 incorporation was measured using a beta scintillation counter (Beckman Coulter LS6500, Beckman Coulter, Mississauga, Canada).
# [2] = system: bovine nucleus pulposus (NP) cells; assay: as above; assay type: cell-based; conditions: 48 h, 16-mer peptides 1 μg/mL, 8-mer peptides 0.5 μg/mL, vs medium alone
# Procedure: as §1, §2
# [3] = system: human inner annulus fibrosus (iAF) cells; assay: as above; assay type: cell-based; conditions: human AF (iAF) cells, 48 h; for proteoglycan synthesis (35SO4 incorporation): 16-mer peptides 1 μg/mL, 8-mer peptides 0.5 μg/mL, vs medium alone
# Procedure: (§3) Human thoracolumbar spines were retrieved through the Transplant Quebec organ donation program. Discs were obtained from 7 donors, 1 male and 6 female, with a mean age of 29.6 years and an age range of 16 to 47 years (Table 1). Donors having had recent chemotherapy, radiation therapies to the spine, or significant long-standing paralysis were excluded from the study. Spine retrieval was performed within 8 h of death. Discs with calcification and loss of disc height were not included in the study. All procedures were approved by the institutional review board of the Montreal General Hospital.
# as §1, §2
# [4] = system: human nucleus pulposus (NP) cells; assay: as above; assay type: cell-based; conditions: 48 h; for proteoglycan synthesis (35SO4 incorporation): 16-mer peptides 1 μg/mL, 8-mer peptides 0.5 μg/mL, vs medium alone
# Procedure: as §3, §1, §2
# [5] = cited from earlier work
# [6] = LIVE/DEAD cell viability in alginate beads; assay type: cell-based; conditions: bovine, bovine intervertebral disc NP and AF cells in alginate beads, 1 μg/ml, 18 days, alginate scaffolds, read-out: cellular viability
# Procedure: Coccygeal IVDs from healthy 20-24 month old steers were obtained from a local abattoir at 2-3 hours after slaughter. The IVDs were separated from their adjacent vertebral bodies, and the cells were isolated from the NP and AF regions by sequential digestion with 0.2% Pronase followed by 0.125% Collagenase digestion as previously described. After isolation, the NP and AF cells were either immediately embedded in alginate beads or were plated in 6 well plates for protein extraction.
# After isolation the NP and AF cells were resuspended in 1.2% alginate (dissolved in 0.15 M NaCl) at a concentration of 2 million cells per ml. Alginate was chosen to assess the effect on matrix production in the absence of extensive cell proliferation. Droplets of cell suspension were released through an 18-gauge needle into 102 mM calcium chloride solution and were let to polymerize for 10 minutes. Alginate beads were subsequently stabilized for 7 days in culture media (Dulbecco's Modified Eagle Medium high glucose supplemented with 10% fetal bovine serum and antibiotics). […]
# Cell viability was assessed at day 18 on the alginate beads using a live/dead fluorescence assay (Live/Dead®, Invitrogen) and visualized by fluorescent microscopy.
# human NP cells = assay: Stability of Link N in the presence of cells (monolayer, mass spectrometry); assay type: in vitro ADME; conditions: Link N 1 μg/mL, 37° C.
# Procedure: (§4) To evaluate the stability of Link N, freshly isolated human cells from NP and AF regions were plated in 6 well culture plates at a density of 250,000 cells per well. Cells were cultured at 37° C., 5% CO2 in 3 mL DMEM, containing 4.5 g/L glucose and supplemented with 10% FCS, 25 mmol/L HEPES, 50 μg/mL gentamicin sulphate, 0.25 μg/mL fungizone, 50 μg/mL L-ascorbate, and 2 mmol/L GlutaMAX. The wells were left for 2 days before exposure to Link-N (1 μg/mL). 200 μL medium was collected at fixed time points (0 h, 6 h, 12 h, 24 h, 36 h, and 48 h). Stability of the peptide was also studied at the same time points in the absence of cells.
# (§5) 25 μL medium samples, collected from the monolayer cultures described above or peptide digests were purified on C18 spin columns according to standard protocols (Harvard Apparatus, Holliston, Mass.). Eluted peptides were reconstituted in 20 μL, 2% acetonitrile and 0.2% formic acid (FA). Samples were injected and quantified using a triple quadropole mass spectrometer TSQ Vantage™ (Thermo Scientific, Waltham, Mass.) equipped with an easy nano-LC system (Thermo Scientific). The mass spectrometer was operated in SRM mode, with both Q1 and Q3 settings at unit resolution (FWHM 0.7 Da). A spray voltage of +1,700 V was used with a heated ion transfer setting of 270° C. for desolvation. Data were acquired using the Xcalibur software (version 2.1). […]
# human AF cells = assay: Stability and processing of Link N in the presence of cells (monolayer, mass spectrometry); assay type: in vitro ADME; conditions: for peak area intensity of intact Link N in the presence of AF cells: human AF cells in monolayer
# Procedure: as §4
# as §5, with “2.1). Mobile phases used were A (0.1% FA in water) and B (100% acetonitrile in 0.1% FA). Separation was performed on 10 μm tip, 75 μm×15 cm capillary columns (PicoTip™ emitter, New Objective, Woburn, Mass.) packed with Reprosil-Pur C18-AQ resin (3 μm, Dr. Maich GmbH, Switzerland). 1 μL sample was injected and separation was performed at a flow rate of 300 nL/min using a gradient of 97% mobile phase A for 5 min, 85% A for 8 min, 65% A for 42 min, and 19% A for 45-50 min.” for “2.1).”
# ADAMTS 4 = target: T1, ADAMTS 4 (Homo sapiens, UniProt O75173); assay: Proteinase treatment of Link N, peak area by mass spectrometry; assay type: in vitro ADME; conditions: 30 minutes, 2 and 24 hours
# T1 construct: purchased R&D Systems
# T1 sequence (O75173 213-837): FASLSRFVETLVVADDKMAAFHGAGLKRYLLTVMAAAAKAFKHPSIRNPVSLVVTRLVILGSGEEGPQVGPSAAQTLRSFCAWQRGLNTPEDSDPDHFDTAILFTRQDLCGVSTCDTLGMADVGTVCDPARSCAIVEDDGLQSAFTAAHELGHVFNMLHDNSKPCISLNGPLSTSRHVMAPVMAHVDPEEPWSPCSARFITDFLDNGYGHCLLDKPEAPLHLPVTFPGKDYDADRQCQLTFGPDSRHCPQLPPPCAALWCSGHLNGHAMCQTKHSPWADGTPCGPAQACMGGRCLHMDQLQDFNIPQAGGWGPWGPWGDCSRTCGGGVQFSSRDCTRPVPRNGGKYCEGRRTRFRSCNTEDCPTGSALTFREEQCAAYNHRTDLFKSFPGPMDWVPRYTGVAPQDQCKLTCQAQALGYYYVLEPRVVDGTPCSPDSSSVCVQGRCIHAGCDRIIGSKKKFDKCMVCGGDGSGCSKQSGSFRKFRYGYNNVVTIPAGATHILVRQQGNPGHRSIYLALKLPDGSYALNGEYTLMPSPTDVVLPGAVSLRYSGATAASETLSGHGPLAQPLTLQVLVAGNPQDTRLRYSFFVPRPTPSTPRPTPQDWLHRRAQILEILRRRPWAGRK
# Procedure: (§6) 300 μg Link N 1-16 was incubated for 30 minutes, 2 and 24 hours in the presence of 10 different proteinases. The buffer used for MMPs 3, 7, 12, 13, ADAMTS 4,5, HTRA1 was composed of 50 mM Tris-HCl, 200 mM NaCl, 5 mM CaCl2, 0.01% Rapigest. For cathepsins K, B, and L, the digest buffer was composed of 2.5 mM DTT, 0.15% chondroitin sulfate A, 0.1 M sodium acetate, pH 5.5.
# (§7) 25 μL medium samples, collected from the monolayer cultures described above or peptide digests were purified on C18 spin columns according to standard protocols (Harvard Apparatus, Holliston, Mass.). Eluted peptides were reconstituted in 20 μL, 2% acetonitrile and 0.2% formic acid (FA). Samples were injected and quantified using a triple quadropole mass spectrometer TSQ Vantage™ (Thermo Scientific, Waltham, Mass.) equipped with an easy nano-LC system (Thermo Scientific). The mass spectrometer was operated in SRM mode, with both Q1 and Q3 settings at unit resolution (FWHM 0.7 Da). A spray voltage of +1,700 V was used with a heated ion transfer setting of 270° C. for desolvation. Data were acquired using the Xcalibur software (version 2.1). Mobile phases used were A (0.1% FA in water) and B (100% acetonitrile in 0.1% FA). Separation was performed on 10 μm tip, 75 μm×15 cm capillary columns (PicoTip™ emitter, New Objective, Woburn, Mass.) packed with Reprosil-Pur C18-AQ resin (3 μm, Dr. Maich GmbH, Switzerland). 1 μL sample was injected and separation was performed at a flow rate of 300 nL/min using a gradient of 97% mobile phase A for 5 min, 85% A for 8 min, 65% A for 42 min, and 19% A for 45-50 min.
# MMP 12 = target: T2, MMP 12 (Homo sapiens, UniProt P39900); assay: as above; assay type: in vitro ADME; conditions: 30 minutes, 2 and 24 hours
# T2 construct: purchased R&D Systems
# T2 sequence (P39900 106-470): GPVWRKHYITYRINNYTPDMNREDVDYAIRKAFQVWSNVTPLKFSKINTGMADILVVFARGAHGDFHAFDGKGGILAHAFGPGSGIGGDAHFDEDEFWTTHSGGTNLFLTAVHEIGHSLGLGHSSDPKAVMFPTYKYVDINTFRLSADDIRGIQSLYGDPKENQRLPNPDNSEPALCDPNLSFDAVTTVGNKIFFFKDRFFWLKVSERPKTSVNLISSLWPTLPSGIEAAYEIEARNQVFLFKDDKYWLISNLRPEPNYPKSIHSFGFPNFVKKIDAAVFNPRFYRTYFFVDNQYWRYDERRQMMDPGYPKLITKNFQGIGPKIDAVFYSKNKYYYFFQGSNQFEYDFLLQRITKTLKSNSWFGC
# Procedure: as §6, §7
# ADAMTS 5 = target: T3, ADAMTS 5 (Homo sapiens, UniProt Q9UNA0); assay: as above; assay type: in vitro ADME; conditions: 30 minutes, 2 and 24 hours
# T3 construct: purchased R&D Systems
# T3 sequence (Q9UNA0 262-930): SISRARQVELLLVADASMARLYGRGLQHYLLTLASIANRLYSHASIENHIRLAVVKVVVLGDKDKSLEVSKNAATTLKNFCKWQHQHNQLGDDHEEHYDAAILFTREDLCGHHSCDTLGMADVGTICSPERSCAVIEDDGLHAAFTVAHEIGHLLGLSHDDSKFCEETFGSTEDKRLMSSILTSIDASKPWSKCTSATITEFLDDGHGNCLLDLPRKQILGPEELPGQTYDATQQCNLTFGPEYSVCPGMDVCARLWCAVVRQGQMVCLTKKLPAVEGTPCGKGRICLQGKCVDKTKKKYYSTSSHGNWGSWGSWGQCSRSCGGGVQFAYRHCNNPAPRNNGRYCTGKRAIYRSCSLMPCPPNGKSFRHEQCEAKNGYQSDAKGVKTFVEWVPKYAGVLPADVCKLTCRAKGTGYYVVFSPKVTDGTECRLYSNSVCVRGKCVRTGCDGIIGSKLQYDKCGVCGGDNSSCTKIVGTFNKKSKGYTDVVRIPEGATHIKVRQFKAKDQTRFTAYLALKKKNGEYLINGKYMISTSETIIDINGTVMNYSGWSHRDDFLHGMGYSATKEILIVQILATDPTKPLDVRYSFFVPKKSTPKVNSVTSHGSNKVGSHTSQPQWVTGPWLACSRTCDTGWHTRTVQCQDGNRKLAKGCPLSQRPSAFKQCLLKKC
# Procedure: as §6, §7
# cathepsin B = cathepsin B (Homo sapiens, UniProt P07858); assay: as above; assay type: in vitro ADME; conditions: 30 minutes, 2 and 24 hours
# Procedure: as §6, §7
# MMP 13 = target: T4, MMP 13 (Homo sapiens, UniProt P45452); assay: as above; assay type: in vitro ADME; conditions: 30 minutes, 2 and 24 hours
# T4 construct: purchased R&D Systems
# Procedure: as §6, §7
# HTRA1 = target: T5, HTRA1 (Homo sapiens, UniProt Q92743); assay: as above; assay type: in vitro ADME; conditions: 30 minutes, 2 and 24 hours
# T5 construct: purchased Thermo Scientific
# T5 sequence (Q92743 23-480): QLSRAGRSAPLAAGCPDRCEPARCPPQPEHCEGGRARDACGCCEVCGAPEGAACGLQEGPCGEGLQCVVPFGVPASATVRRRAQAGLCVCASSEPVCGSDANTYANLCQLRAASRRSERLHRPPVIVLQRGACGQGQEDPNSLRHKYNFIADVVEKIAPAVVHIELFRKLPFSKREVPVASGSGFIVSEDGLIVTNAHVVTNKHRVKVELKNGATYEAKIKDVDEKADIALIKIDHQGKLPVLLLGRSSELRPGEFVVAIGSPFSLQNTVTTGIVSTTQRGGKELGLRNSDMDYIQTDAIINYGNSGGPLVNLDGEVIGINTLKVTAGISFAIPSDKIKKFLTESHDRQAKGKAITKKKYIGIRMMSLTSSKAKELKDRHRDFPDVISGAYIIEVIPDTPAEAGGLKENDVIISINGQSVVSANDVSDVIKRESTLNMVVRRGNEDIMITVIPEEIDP
# Procedure: as §6, §7
# cathepsin L = cathepsin L (Homo sapiens, UniProt P07711); assay: as above; assay type: in vitro ADME; conditions: 30 minutes, 2 and 24 hours
# cathepsin L, sequence (P07711 114-333): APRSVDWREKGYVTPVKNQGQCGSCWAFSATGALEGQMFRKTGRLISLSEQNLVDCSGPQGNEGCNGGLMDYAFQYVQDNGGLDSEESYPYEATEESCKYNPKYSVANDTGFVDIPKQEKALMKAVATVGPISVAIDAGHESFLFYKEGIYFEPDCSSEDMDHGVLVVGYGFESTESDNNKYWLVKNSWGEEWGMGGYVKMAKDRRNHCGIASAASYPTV
# Procedure: as §6, §7
# MMP 7 = target: T6, MMP 7 (Homo sapiens, UniProt P09237); assay: as above; assay type: in vitro ADME; conditions: 30 minutes, 2 and 24 hours
# T6 construct: purchased R&D Systems
# T6 sequence (P09237 95-267): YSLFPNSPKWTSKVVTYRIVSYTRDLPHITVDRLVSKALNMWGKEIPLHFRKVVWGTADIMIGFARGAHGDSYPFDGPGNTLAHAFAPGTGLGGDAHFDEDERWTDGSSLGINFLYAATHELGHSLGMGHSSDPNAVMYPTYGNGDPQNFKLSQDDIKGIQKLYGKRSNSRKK
# Procedure: as §6, §7
# cathepsin K = target: T7, cathepsin K (Homo sapiens, UniProt P43235); assay: as above; assay type: in vitro ADME
# T7 sequence (P43235 115-329): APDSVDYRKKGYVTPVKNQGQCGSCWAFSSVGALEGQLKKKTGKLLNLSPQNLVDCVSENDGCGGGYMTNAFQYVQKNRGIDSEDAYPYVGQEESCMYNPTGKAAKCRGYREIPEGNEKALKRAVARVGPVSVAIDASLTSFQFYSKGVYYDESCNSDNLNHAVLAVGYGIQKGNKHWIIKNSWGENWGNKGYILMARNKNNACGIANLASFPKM
# Procedure: as §6, §7
# MMP 3 = target: T8, MMP 3 (Homo sapiens, UniProt P08254); assay: as above; assay type: in vitro ADME; conditions: 30 minutes, 2 and 24 hours
# T8 construct: purchased R&D Systems
# T8 sequence (P08254 100-477): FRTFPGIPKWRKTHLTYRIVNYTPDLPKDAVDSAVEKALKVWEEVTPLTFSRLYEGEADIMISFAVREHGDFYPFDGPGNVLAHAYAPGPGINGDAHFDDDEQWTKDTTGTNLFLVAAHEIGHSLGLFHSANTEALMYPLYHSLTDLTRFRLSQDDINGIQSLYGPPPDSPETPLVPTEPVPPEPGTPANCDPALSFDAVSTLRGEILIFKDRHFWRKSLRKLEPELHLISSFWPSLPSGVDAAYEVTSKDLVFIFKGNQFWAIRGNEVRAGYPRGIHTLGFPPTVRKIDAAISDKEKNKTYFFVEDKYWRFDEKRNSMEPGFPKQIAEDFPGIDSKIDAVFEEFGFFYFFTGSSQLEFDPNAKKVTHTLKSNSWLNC
# Procedure: as §6, §7
# [7] = system: cells from degenerated disc tissue; conditions: Wang et al.; 100 ng/mL; monolayer-expanded cells in 3D culture; cited from earlier work
# [8] = IL-1β 10 ng/mL, vs IL-1-containing medium
substance,measurement,setting,value
"HIARDHDLTYNDSLHD [R-Link N, reverse Link N]",proteoglycan synthesis (35SO4 incorporation),[1],no effect was observed
same,proteoglycan synthesis (35SO4 incorporation),[2],no effect was observed
same,proteoglycan synthesis (35SO4 incorporation),[3],no response
same,proteoglycan synthesis (35SO4 incorporation),[4],no response
"LDHDRAIH [Link N 9-16, second 8 peptide residues of Link N]",proteoglycan synthesis (35SO4 incorporation),[1],no effect was seen
same,proteoglycan synthesis (35SO4 incorporation),[2],no effect was seen
same,proteoglycan synthesis (35SO4 incorporation),[3],no response
same,proteoglycan synthesis (35SO4 incorporation) in the presence of IL-1β,[3]; [8],no response
same,proteoglycan synthesis (35SO4 incorporation),[4],no response
same,proteoglycan synthesis (35SO4 incorporation) in the presence of IL-1β,[4]; [8],no response
"DHLSDNYTLDHDRAIH [Link N, DHLSDNYTLDHDRAIH]",retention of Link N in the human disc,[5],only lost slowly through the endplate and not AF
same,"viability at 432 h, 1 µg/mL",[6],> 98%
same,time the peptide was stable in the presence of NP cells,human NP cells,at least 48 h
same,processed product of Link N identified by tandem mass spectrometry,"human AF cells; AF cell culture medium, 964.4 Da peptide",a peptide spanning residues 1 to 8 was generated
same,peak area intensity of intact Link N in the presence of AF cells,human AF cells; after 48 h,only trace amounts were present
same,peak area intensity of intact Link N in the presence of AF cells,human AF cells; by 6 h,decrease
same,peak area intensity of the 1922 Da Link 1-16 peptide,ADAMTS 4,un-affected
same,peak area intensity of the 1922 Da Link 1-16 peptide,MMP 12,un-affected
same,peak area intensity of the 1922 Da Link 1-16 peptide,ADAMTS 5,un-affected
same,peak area intensity of the 1922 Da Link 1-16 peptide,cathepsin B,un-affected
same,peak area intensity of the 1922 Da Link 1-16 peptide,MMP 13,un-affected
same,peak area intensity of the 1922 Da Link 1-16 peptide,HTRA1,un-affected
same,peak area intensity of the 1922 Da Link 1-16 peptide,cathepsin L,un-affected
same,peak area intensity of the 1922 Da Link 1-16 peptide,MMP 7,un-affected
same,peak area intensity of the 1922 Da Link 1-16 peptide,cathepsin K; 2 and 24 hours,hardly detectable
same,peak area intensity of the 1922 Da Link 1-16 peptide,cathepsin K; 30 minutes,significantly diminished
same,cleavage of Link N by cathepsin K (MRM of Link 1-8 and Link 9-16),cathepsin K; 2 hours,single cleavage between amino acids 8 and 9
same,peak area intensity of the 1922 Da Link 1-16 peptide,MMP 3,un-affected
"residue 1-12 peptide: Link N-derived peptide spanning amino acid residues 1-12, tested by Wang et al. (DHLSDNYTLDHD; UniProt P10915 16-27, looked up, fragment)",stimulatory effect (cell-associated sulphated GAG),[7],inactive
"DHHSDNYTVDHDRVIH [BLN, DHHSDNYTVDHDRVIH]","viability at 432 h, 1 µg/mL",[6],> 98%
"DLNRAHLHIDYHTDSD [S-Link N, scrambled Link N]",proteoglycan synthesis (35SO4 incorporation),[1],no effect was observed
same,proteoglycan synthesis (35SO4 incorporation),[2],no effect was observed
same,proteoglycan synthesis (35SO4 incorporation),[3],no response
same,proteoglycan synthesis (35SO4 incorporation),[4],no response
